Experiments:
[1] = system: HUVEC; assay: Cell death assay discriminating apoptotic from necrotic cell death in HUVEC; format: cell-based, human; details: stimulated overnight; staining with Hoechst 33342 and EtDIII
Experimental: Endothelial cells were grown to reach 80-90% confluency before addition of Ethidium homodimer […]) alone or together with substances or with tumour cells together with substances or inhibitors as indicated in the figures. After 6-18 h, cells were stained with Hoechst33342 and images were acquired. In order to identify the mode of cell death, all images were analyzed with FIJI. The total number of nuclei was determined through a low threshold over all Hoechst positive nuclei. On the same channel a second, separate threshold was used to determine the number of condensed nuclei. A third threshold on the second channel was used in order to determine the number of nuclei that were stained positive for […]. Knockdown in cells was achieved by double-transfection with siRNA using Lipofectamie […] Assays: HUVECs, HMVECs-L or L929 cells (1.5×10^4 at seeding in 100 μl) were cultured for 24 hours in 96-well plates. To induce cell death, cells were stimulated overnight with either rhTRAIL (100 ng/ml, Peprotech), Staurosporine ([…], Jena BioScience), H2O2 (1 mM, AppliChem) or […] (100 ng/ml, Peprotech) or cultured under hypoxic conditions (1% O2, Coy Laboratory Inc). […] Knockdown efficiencies were determined by Western Blotting using antibodies against RIPK3 (Abcam), Caspase-8 (ProSci) and a-tubulin (Sigma) upon lysis with Laemmli buffer or by quantitative PCR (Roche). […] Knockdown efficiencies were determined using quantitative PCR (Roche). Tumor cell number upon knockdown was determined by counting Hoechst33342-positive cells, and tumor cell death was determined by counting condensed and/or EthD-III-positive nuclei (see below). Cell migration was determined by a scratch assay Wang et al., 2007). […]

[2] = target: T1, RIPK1 (Homo sapiens, UniProt Q13546); details: cited from earlier work
T1 sequence (Q13546 1-671): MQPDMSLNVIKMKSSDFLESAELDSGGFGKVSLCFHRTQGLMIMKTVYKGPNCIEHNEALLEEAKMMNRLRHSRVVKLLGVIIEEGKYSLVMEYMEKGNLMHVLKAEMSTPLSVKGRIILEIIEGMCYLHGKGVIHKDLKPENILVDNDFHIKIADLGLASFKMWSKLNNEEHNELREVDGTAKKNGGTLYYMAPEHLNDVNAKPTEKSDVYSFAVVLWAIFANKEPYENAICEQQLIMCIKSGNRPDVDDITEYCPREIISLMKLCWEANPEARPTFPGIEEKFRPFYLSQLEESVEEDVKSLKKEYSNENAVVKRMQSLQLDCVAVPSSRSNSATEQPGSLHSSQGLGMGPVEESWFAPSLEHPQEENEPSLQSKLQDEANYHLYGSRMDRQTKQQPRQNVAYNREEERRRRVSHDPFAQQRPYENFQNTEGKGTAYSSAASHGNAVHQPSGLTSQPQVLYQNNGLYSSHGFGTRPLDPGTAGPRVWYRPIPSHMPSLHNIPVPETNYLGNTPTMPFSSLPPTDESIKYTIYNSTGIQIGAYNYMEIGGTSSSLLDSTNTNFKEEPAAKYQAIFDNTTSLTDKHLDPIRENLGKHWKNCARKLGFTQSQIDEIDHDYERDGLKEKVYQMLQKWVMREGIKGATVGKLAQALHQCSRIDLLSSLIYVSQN

[3] = system: necroptosis; details: where Nec1i can be modified to an active form; cited from earlier work
[4] = system: L929 cells; assay: Cell death assay in L929 cells (TNF-induced necroptosis, Hoechst 33342/EtDIII staining); format: cell-based, mouse; details: L929 cells treated with TNFα; staining with Hoechst 33342 and EtDIII
Experimental: Cell Death Assays: HUVECs, HMVECs-L or L929 cells (1.5×10^4 at seeding in 100 μl) were cultured for 24 hours in 96-well plates. To induce cell death, cells were stimulated overnight with either rhTRAIL (100 ng/ml, Peprotech), Staurosporine ([…], Jena BioScience), H2O2 (1 mM, AppliChem) or […] (100 ng/ml, Peprotech) or cultured under hypoxic conditions (1% O2, Coy Laboratory Inc). […] Knockdown efficiencies were determined by Western Blotting using antibodies against RIPK3 (Abcam), Caspase-8 (ProSci) and a-tubulin (Sigma) upon lysis with Laemmli buffer or by quantitative PCR (Roche). […] Knockdown efficiencies were determined using quantitative PCR (Roche). Tumor cell number upon knockdown was determined by counting Hoechst33342-positive cells, and tumor cell death was determined by counting condensed and/or EthD-III-positive nuclei (see below). Cell migration was determined by a scratch assay Wang et al., 2007). […] To all images to be analyzed, a Gaussian blur with a radius of 3 pixels was applied to prevent repeatedly counting of fragmented parts of apoptotic nuclei. […] The total number of all endothelial nuclei was determined through a low threshold (TH1) and application of a watershed on the resulting binary image over all Hoechst positive nuclei (minus the nuclei from tumor cells). […]

[5] = system: HUVEC; assay: Tumour cell-induced endothelial cell necroptosis in vitro (co-culture, Hoechst 33342/EtDIII staining); format: cell-based, human; details: Nec-1 30 μM, co-culture overnight
Experimental: Endothelial cells were grown to reach 80-90% confluency before addition of Ethidium homodimer […]) alone or together with substances or with tumour cells together with substances or inhibitors as indicated in the figures. After 6-18 h, cells were stained with Hoechst33342 and images were acquired. In order to identify the mode of cell death, all images were analyzed with FIJI. The total number of nuclei was determined through a low threshold over all Hoechst positive nuclei. On the same channel a second, separate threshold was used to determine the number of condensed nuclei. A third threshold on the second channel was used in order to determine the number of nuclei that were stained positive for […]. Knockdown in cells was achieved by double-transfection with siRNA using Lipofectamie […] […] Knockdown efficiencies were determined by Western Blotting using antibodies against RIPK3 (Abcam), Caspase-8 (ProSci) and a-tubulin (Sigma) upon lysis with Laemmli buffer or by quantitative PCR (Roche). […] Knockdown efficiencies were determined using quantitative PCR (Roche). Tumor cell number upon knockdown was determined by counting Hoechst33342-positive cells, and tumor cell death was determined by counting condensed and/or EthD-III-positive nuclei (see below). Cell migration was determined by a scratch assay Wang et al., 2007). […]

[6] = system: B16 or LLC1 tumour cells; assay: Metastasis model: lung metastases after i.v. tumour cell injection (12 d); format: in vivo, mouse; details: Nec-1 1.65 μg/g i.v. per dose, lungs at 12 d
Experimental: (§1) In vivo: Tumour cells and substances or inhibitors were injected i.v. as depicted in the scheme in FIG. 5B into wildtype animals or animals of the respective genotype. To identify EtDIII-positive cells in vivo, animals were injected with EtDIII i.v. 10 min before sacrifice. Organs were isolated and processed for immunohistochemical analysis. For determining the number of metastasis, animals were sacrificed, lungs were isolated and macroscopically analyzed. All reagents used for these studies (incl. DR6-Fc) are commercially available (e.g. Lonza, CellSignaling, Sigma, R&D, etc.). […]
(§2) TUNEL staining kit was from Roche. Sections were analyzed in XYZ views on a Leica SPS confocal microscope. The number of EthD-III-positive endothelial cells was determined by manual counting of EthD-III/ERG- or EthD-III/CD31-positive cells on a minimum of four random tissue sections per organ. For quantification of extravasating tumor cells, cryosections were analyzed by two criteria: tumor cells directly surrounded by CD31 staining (i.e. blood vessel) and with a noninvasive phenotype (i.e. round cell shape) were scored as intravascular, while cells outside blood vessels with an invasive phenotype (i.e. irregular cell shape with protrusions) were scored as extravascular. […]

[7] = system: endothelial cells of the mouse lung; assay: Tumour cell-induced endothelial cell death in vivo (EthD-III-positive endothelial cells in lung, 6 h); details: B16 tumour cells i.v., Nec-1 1.65 μg/g i.v. per dose
Experimental: as §1, §2

OO [H2O2]
type of cell death induced in HUVEC [1]: necrotic phenotype

O=C1NC(=S)NC1Cc1c[nH]c2ccccc12 (stereo not drawn) [Nec-1 inactive, 5-((1H-indol-3-yl)methyl)-2-thioxoimidazolidin-4-one]
effectiveness in vitro relative to Nec-1 (times less effective) [2]: approximately 100 times | inhibition of necroptosis in cellular systems or in vivo [3]: can efficiently inhibit necroptosis

CN1C(=O)C(Cc2c[nH]c3ccccc23)NC1=S (stereo not drawn) [Nec-1, 5-(1H-indo1-3-ylmethyl)-3-methyl-2-thioxo-4-imidazolidinone]
TNF-induced necrotic (necroptotic) phenotype of L929 cells, effect of addition of inhibitor [4]: could be blocked | tumour cell-induced necroptosis of endothelial cells in vitro (number of necroptotic HUVEC) [5]: reduced | metastasis formation in vivo [6]: reduced | tumour cell-induced endothelial necroptosis in vivo (necroptotic ECs) [7]: reduced

CN[C@@H]1C[C@H]2O[C@@](C)([C@@H]1OC)n1c3ccccc3c3c4c(c5c6ccccc6n2c5c31)C(=O)NC4 [Staurosporine]
type of cell death induced in HUVEC [1]: induced apoptosis

B1: TRAIL: known stimulus for apoptosis, rhTRAIL from Peprotech (protein, UniProt P50591 1-281, looked up)
Tumor necrosis factor ligand …: MAMMEVQGGPSLGQTCVLIVIFTVLLQSLCVAVTYVYFTNELKQMQDKYSKSGIACFLKEDDSYWDPNDEESMNSPCWQVKWQLRQLVRKMILRTSEETISTVQEKQQNISPLVRERGPQRVAAHITGTRGRSNTLSSPNSKNEKALGRKINSWESSRSGHSFLSNLHLRNGELVIHEKGFYYIYSQTYFRFQEEIKENTKNDKQMVQYIYKYTSYPDPILLMKSARNSCWSKDAEYGLYSIYQGGIFELKENDRIFVSVTNEHLIDMDHEASFFGAFLVG
type of cell death induced in HUVEC [1]: induced apoptosis
